Results taken from patent US20070128217A1 (priority 2003, published 2007).

Columns and labels:
[1] = system: antibodies in sera from SARS patients (sera 1a, 1b, 2, 6, 37, 62, London, SARS-yellow, SARS-green); format: binding, human; parameters: Binding of serum 6 to linear peptides of protein X1 of SARS-CoV Urbani / Binding of serum 37 to linear peptides of protein X1 of SARS-CoV Urbani / Binding of serum 6 to looped/cyclic peptide (PEPSCAN-ELISA) / Binding of serum 37 to looped/cyclic peptide (PEPSCAN-ELISA) / Binding of serum 37 to looped/cyclic peptides of protein X1 of SARS-CoV Urbani / Binding of serum 6 to linear peptides of protein X2 / Binding of serum 37 to linear peptides of protein X2 / Binding of serum 37 to looped/cyclic peptides of protein X2 of SARS-CoV Urbani / Binding of serum 6 to linear peptides of protein M of SARS-CoV Urbani / Binding of serum 37 to linear peptides of protein M of SARS-CoV Urbani / Binding of serum 6 to looped/cyclic peptides of protein M of SARS-CoV Urbani / Binding of serum 37 to looped/cyclic peptides of protein M of SARS-CoV Urbani / Binding of serum 6 to linear peptides of protein X3 of SARS-CoV Urbani / Binding of serum 37 to linear peptides of protein X3 of SARS-CoV Urbani / Binding of serum 37 to looped/cyclic peptides of protein X3 of SARS-CoV Urbani / Binding of serum 6 to linear peptides of protein X4 of SARS-CoV Urbani / Binding of serum 37 to linear peptides of protein X4 of SARS-CoV Urbani / Binding of serum 37 to looped/cyclic peptides of protein X4 of SARS-CoV Urbani / Binding of serum 6 to linear peptides of protein X5 of SARS-CoV Urbani / Binding of serum 37 to linear peptides of protein X5 of SARS-CoV Urbani / Binding of serum 37 to looped/cyclic peptides of protein X5 of SARS-CoV Urbani / Binding of serum 6 to linear peptides of protein N of SARS-CoV Urbani / Binding of serum 37 to linear peptides of protein N of SARS-CoV Urbani / Binding of serum 6 to linear peptide (PEPSCAN-ELISA) / Binding of serum 1a to looped/cyclic peptides of protein N of SARS-CoV Urbani / Binding of serum 1b to looped/cyclic peptides of protein N of SARS-CoV Urbani / Binding of serum 2 to looped/cyclic peptides of protein N of SARS-CoV Urbani / Binding of serum 6 to looped/cyclic peptides of protein N of SARS-CoV Urbani / Binding of serum 37 to looped/cyclic peptides of protein N of SARS-CoV Urbani / Binding of serum 62 to looped/cyclic peptides of protein N of SARS-CoV Urbani / Binding of serum London to looped/cyclic peptides of protein N of SARS-CoV Urbani / Binding of serum SARS-green to looped/cyclic peptides of protein N of SARS-CoV Urbani: unit not given here
[2] = system: control sera (pooled serum of ten healthy LUMC hospital workers; commercial negative donor pooled serum from the Dutch bloodbank); format: binding, human; parameters: Binding of Control serum LUMC to linear peptides / Binding of Control serum Blood-bank to linear peptides / Binding of Control serum LUMC to looped peptides / Binding of Control Serum Blood-Bank to Looped peptides / Binding of Control serum LUMC to linear peptides of the protein M of SARS-CoV Urbani / Binding of Control serum Blood-bank to linear peptides of the protein M of SARS-CoV Urbani / Binding of Control serum LUMC to looped peptides of the protein M of SARS-CoV Urbani / Binding of Control Serum Blood-Bank to Looped peptides of the protein M of SARS-CoV Urbani: unit not given here
[3] = system: rabbit serum obtained by immunizing a rabbit with the SARS-CoV strain Frankfurt 1; format: binding; parameters: Binding of a rabbit serum to linear peptides / Binding of a rabbit serum to looped peptides / Rabbit serum linear peptides / Rabbit serum looped peptides / Binding of a rabbit serum to linear peptides of protein N of SARS-CoV Urbani (Rabbit serum linear peptides) / Binding of a rabbit serum to looped/cyclic peptides of protein N of SARS-CoV Urbani (Rabbit serum looped peptides): unit not given here
[4] = system: recombinant human anti-SARS-CoV antibody 03-018; format: binding; parameters: Binding of antibody 03-018 to linear peptides of the N protein of SARS-CoV Urbani / Binding of antibody 03-018 to looped/cyclic peptides of the N protein of SARS-CoV Urbani: unit not given here

Row | Sequence | Binding of serum 1a to looped/cyclic peptides of protein N of SARS-CoV Urbani [1] | Binding of serum 1b to looped/cyclic peptides of protein N of SARS-CoV Urbani [1] | Binding of serum 2 to looped/cyclic peptides of protein N of SARS-CoV Urbani [1] | Binding of serum 6 to looped/cyclic peptides of protein N of SARS-CoV Urbani [1] | Binding of serum 37 to looped/cyclic peptides of protein N of SARS-CoV Urbani [1] | Binding of serum 62 to looped/cyclic peptides of protein N of SARS-CoV Urbani [1] | Binding of serum London to looped/cyclic peptides of protein N of SARS-CoV Urbani [1] | Binding of serum SARS-green to looped/cyclic peptides of protein N of SARS-CoV Urbani [1] | Binding of serum SARS-yellow to looped/cyclic peptides of protein N of SARS-CoV Urbani [1] | Binding of Control Serum Blood-Bank to Looped peptides [2] | Binding of Control serum Blood-bank to linear peptides [2] | Binding of Control serum LUMC to linear peptides [2] | Binding of Control serum LUMC to looped peptides [2] | Binding of a rabbit serum to linear peptides of protein N of SARS-CoV Urbani (Rabbit serum linear peptides) [3] | Binding of a rabbit serum to looped/cyclic peptides of protein N of SARS-CoV Urbani (Rabbit serum looped peptides) [3] | Binding of antibody 03-018 to linear peptides of the N protein of SARS-CoV Urbani [4] | Binding of antibody 03-018 to looped/cyclic peptides of the N protein of SARS-CoV Urbani [4] | Binding of serum 1a to linear peptides of protein N of SARS-CoV Urbani [1] | Binding of serum 1b to linear peptides of protein N of SARS-CoV Urbani [1] | Binding of serum 2 to linear peptides of protein N of SARS-CoV Urbani [1] | also measured
1 | ETALALLLLDRLNQL | 0.4 | 0.3 | 0.4 | 0.2 | 0.7 | 0.6 | 0.5 | 0.4 | 0.5 | 0.8 | 0.5 | 0.5 | 0.7 | 0.4 | 0.6 | 0.1 | 0.3 |  |  |  | Binding of serum 1a to linear peptide (PEPSCAN-ELISA) [1]: 0.2; Binding of serum 1b to linear peptide (PEPSCAN-ELISA) [1]: 0.1; Binding of serum 2 to linear peptide (PEPSCAN-ELISA) [1]: 0.1; Binding of serum 6 to linear peptide (PEPSCAN-ELISA) [1]: 0.1; Binding of serum 37 to linear peptide (PEPSCAN-ELISA) [1]: 0.6; Binding of serum 62 to linear peptide (PEPSCAN-ELISA) [1]: 0.4; Binding of serum London to linear peptide (PEPSCAN-ELISA) [1]: 0.5; Binding of serum SARS-green to linear peptide (PEPSCAN-ELISA) [1]: 0.3; Binding of serum SARS-yellow to linear peptide (PEPSCAN-ELISA) [1]: 0.5
2 | FGGPTDSTDNNQNGG | 0.2 | 0.1 | 0.2 | 0.1 | 0.4 | 0.2 | 0.2 | 0.3 | 0.1 | 0.4 | 0.6 | 0.5 | 0.4 | 0.0 | 0.1 | 0.1 | 0.2 | 0.3 | 0.1 | 0.1 | Binding of serum 6 to linear peptides of protein N of SARS-CoV Urbani [1]: 0.1; Binding of serum 37 to linear peptides of protein N of SARS-CoV Urbani [1]: 0.6; Binding of serum 62 to linear peptides of protein N of SARS-CoV Urbani [1]: 0.5; Binding of serum London to linear peptides of protein N of SARS-CoV Urbani [1]: 0.5; Binding of serum SARS-green to linear peptides of protein N of SARS-CoV Urbani [1]: 0.0; Binding of serum SARS-yellow to linear peptides of protein N of SARS-CoV Urbani [1]: 0.5
3 | FGRRGPEQTQGNFGD | 0.3 | 0.1 | 0.2 | 0.1 | 0.4 | 0.1 | 0.2 | 0.2 | 0.2 | 0.4 | 0.7 | 0.6 | 0.3 | 0.2 | 0.0 | 0.1 | 0.1 |  |  |  | Recognition of the peptide by sera of SARS-CoV infected individuals, and form (linear, looped/cyclic) in which it is recognized [1]: recognized in linear form
4 | FKDNVILLNKHIDAY | 0.5 | 0.3 | 0.5 | 0.3 | 0.8 | 0.8 | 0.5 | 0.2 | 0.5 |  |  |  |  | 0.1 | 0.5 | 0.1 | 0.2 | 0.2 | 0.1 | 0.2 | Binding of serum 6 to linear peptides of protein N of SARS-CoV Urbani [1]: 0.2; Binding of serum 37 to linear peptides of protein N of SARS-CoV Urbani [1]: 0.6; Binding of serum 62 to linear peptides of protein N of SARS-CoV Urbani [1]: 0.6; Binding of serum London to linear peptides of protein N of SARS-CoV Urbani [1]: 0.5; Binding of serum SARS-green to linear peptides of protein N of SARS-CoV Urbani [1]: 0.2; Binding of serum SARS-yellow to linear peptides of protein N of SARS-CoV Urbani [1]: 0.7; Control Serum Blood-Bank Looped peptides [2]: 0.8; Control serum Blood-bank linear peptides [2]: 0.6; Control serum LUMC linear peptides [2]: 0.5; Control serum LUMC looped peptides [2]: 0.8
5 | FPPTEPKKDKKKKTD | 0.2 | 0.1 | 0.2 | 0.1 | 0.4 | 0.2 | 0.2 | 0.0 | 0.1 |  |  |  |  | 0.1 | 0.1 | 0.1 | 0.2 | 0.2 | 0.1 | 1.3 | Binding of serum 6 to linear peptides of protein N of SARS-CoV Urbani [1]: 0.2; Binding of serum 37 to linear peptides of protein N of SARS-CoV Urbani [1]: 0.6; Binding of serum 62 to linear peptides of protein N of SARS-CoV Urbani [1]: 0.7; Binding of serum London to linear peptides of protein N of SARS-CoV Urbani [1]: 0.6; Binding of serum SARS-green to linear peptides of protein N of SARS-CoV Urbani [1]: 0.1; Binding of serum SARS-yellow to linear peptides of protein N of SARS-CoV Urbani [1]: 0.6; Control Serum Blood-Bank Looped peptides [2]: 0.4; Control serum Blood-bank linear peptides [2]: 0.6; Control serum LUMC linear peptides [2]: 0.6; Control serum LUMC looped peptides [2]: 0.3
